Results as given in patent US20090176817A1, “Method of Treatment of Diarrhea-Predominant Irritable Bowel Syndrome in a Subject” (priority 2005, published 2009).

Tested on: diarrhea-predominant IBS subjects
Assay: Study S241.3.011: weekly diary questions on adequate relief
Assay type: in vivo, human
Method: Study S241.3.011 was a Phase III, double-blind, placebo-controlled, randomized, multinational study to investigate the safety and efficacy of 2 mg TID of cilansetron for a period of 12 weeks followed by a rerandomized, placebo-controlled four-week treatment period, in diarrhea-predominant IBS subjects. The study was conducted in six countries including the US. A total of 2115 subjects consented to participate, and 770 subjects were randomized. A total of 746 subjects were analyzed for efficacy and 755 subjects were analyzed for safety. Diagnosis and main criteria for inclusion were IBS subjects satisfying the Rome I criteria (1992); the diarrhea predominant sub-population of the Rome II criteria; and a minimum abdominal pain/discomfort, stool frequency and consistency determined during the run-in period. Subjects were treated with cilansetron 2 mg tablets given orally TID or matching placebo tablets given orally TID for 12 weeks followed by a rerandomized, placebo-controlled four-week treatment period.
The primary efficacy parameter was the number of months that a subject was a responder for IBS symptoms (abdominal pain, abdominal discomfort, abnormal bowel habits) over the 12-week treatment period. A responder for a month (monthly responder) was defined as a subject who answered the weekly question with “yes” at least twice for that month. The two main secondary efficacy parameters were the monthly responder rates based on the “adequate relief” questions regarding abdominal pain/discomfort and abnormal bowel habits during the 12-week treatment period. The overall response rate and responder rate for the weekly diary questions on adequate relief at each month and all months, the adequate relief rate, the number of subjects with adequate relief by week, daily diary questions, IBS-QOL scores, and the interruption of activities were also assessed. Safety was evaluated by physical examination, ECG, vital signs, laboratory evaluations, concomitant medications, and AEs.
Subjects who were initially randomized to the cilansetron 2 mg TID group and rerandomized to placebo, will be referred to as the C/P treatment group; subjects initially randomized to the placebo group and rerandomized to placebo will be referred to as the P/P treatment group; the P/C and C/C treatment group nomenclature follow the same principle. Of the 591 subjects who completed the three-month treatment period, 576 subjects were rerandomized and thus divided into the following treatment groups: 150 subjects in the C/C treatment group, 140 subjects in the C/P treatment group, 136 subjects in the P/C treatment group, and 150 subjects in the P/P treatment group. Of the 576 subjects rerandomized, a higher percentage of subjects in the C/C treatment group (99%) completed the study compared with the C/P (95%), P/C (93%), and the P/P (95%) treatment groups.
Studies S24 1.3.OO6, S24 1.3.0 1 1, and S24 1.3.009 used the following efficacy measurements: • The subjects answered the following three questions with “yes” or “no” using a phone diary at the end of each week: • a) During the last week, did you experience adequate relief of your IBS symptoms, such as abdominal pain, abdominal discomfort, abnormal bowel habits? • b) During the last week, did you experience adequate relief of your abdominal pain and/or discomfort? • c) During the last week, did you experience adequate relief of your abnormal bowel habits? • The subjects rated the following symptoms using the phone diary at the end of each day: • abdominal pain/discomfort (five-point scale); • stool consistency (seven-point Bristol Stool Scale); • stool frequency (number of bowel movements each day); • urgency (five-point scale); • straining (yes or no); • feeling of incomplete defecation (yes or no); • bloating or feeling of abdominal distension (five-point scale). • In Studies S241 A006 and S241.3.009, subjects completed the IBS-QOL Survey at Baseline (Day 1) and at the end of treatment. […]

[1] = 2 mg TID, monthly LOCF, ITT N = 377
[2] = 2 mg TID, three-month treatment period, monthly LOCF, ITT N = 377
[3] = 2 mg TID, three-month treatment period, observed case, ITT N = 377
[4] = Baseline BMI: <30 kg/m^2, three-month treatment period, monthly LOCF, ITT, 2 mg TID

Cc1nccn1C[C@H]1CCc2c(c3cccc4c3n2CCC4)C1=O [Cilansetron, (R)-(−)-4,5,6,8,9,10-hexahydro-10-[(2-methyl-1H-imidazol-1-yl)methyl]-11H-pyrido-[3,2,1-jk]-carbazol-11-one]
Responders for one month, IBS symptoms (2 mg TID, 3 months): 14%
Responders for one month, abdominal pain/discomfort (2 mg TID, 3 months): 12%
Responders for one month, abnormal bowel habits (2 mg TID, 3 months): 13%
Responders for three months, IBS symptoms (2 mg TID, 3 months): 39%
Responders for three months, abdominal pain/discomfort (2 mg TID, 3 months): 42%
Responders for three months, abnormal bowel habits (2 mg TID, 3 months): 40%
Responders for two months, IBS symptoms (2 mg TID, 3 months): 19%
Responders for two months, abdominal pain/discomfort (2 mg TID, 3 months): 19%
Responders for two months, abnormal bowel habits (2 mg TID, 3 months): 18%
Responders for zero months, IBS symptoms (2 mg TID, 3 months): 28%
Responders for zero months, abdominal pain/discomfort (2 mg TID, 3 months): 27%
Responders for zero months, abnormal bowel habits (2 mg TID, 3 months): 30%
Responder rate, adequate relief of IBS symptoms, Each month of Months 1 to 3 [1]: 148 (39) n (%)
Responder rate, adequate relief of IBS symptoms, Month 1 [1]: 216 (57) n (%)
Responder rate, adequate relief of IBS symptoms, Month 2 [1]: 214 (57) n (%)
Responder rate, adequate relief of IBS symptoms, Month 3 [1]: 208 (55) n (%)
Responder rate, adequate relief of abdominal pain/discomfort, Each month of Months 1 to 3 [1]: 159 (42) n (%)
Responder rate, adequate relief of abdominal pain/discomfort, Month 1 [1]: 217 (58) n (%)
Responder rate, adequate relief of abdominal pain/discomfort, Month 2 [1]: 229 (61) n (%)
Responder rate, adequate relief of abdominal pain/discomfort, Month 3 [1]: 220 (58) n (%)
Responder rate, adequate relief of abnormal bowel habits, Each month of Months 1 to 3 [1]: 149 (40) n (%)
Responder rate, adequate relief of abnormal bowel habits, Month 1 [1]: 214 (57) n (%)
Responder rate, adequate relief of abnormal bowel habits, Month 2 [1]: 209 (55) n (%)
Responder rate, adequate relief of abnormal bowel habits, Month 3 [1]: 206 (55) n (%)
Subjects who were responders for One month, adequate relief of IBS symptoms [2]: 54 (14) n (%)
Subjects who were responders for One month, adequate relief of abdominal pain/discomfort [2]: 45 (12) n (%)
Subjects who were responders for One month, adequate relief of abnormal bowel habits [2]: 50 (13) n (%)
Subjects who were responders for Three months, adequate relief of IBS symptoms [2]: 148 (39) n (%)
Subjects who were responders for Three months, adequate relief of abdominal pain/discomfort [2]: 159 (42) n (%)
Subjects who were responders for Three months, adequate relief of abnormal bowel habits [2]: 149 (40) n (%)
Subjects who were responders for Two months, adequate relief of IBS symptoms [2]: 70 (19) n (%)
Subjects who were responders for Two months, adequate relief of abdominal pain/discomfort [2]: 72 (19) n (%)
Subjects who were responders for Two months, adequate relief of abnormal bowel habits [2]: 66 (18) n (%)
Subjects who were responders for Zero months, adequate relief of IBS symptoms [2]: 105 (28) n (%)
Subjects who were responders for Zero months, adequate relief of abdominal pain/discomfort [2]: 101 (27) n (%)
Subjects who were responders for Zero months, adequate relief of abnormal bowel habits [2]: 112 (30) n (%)
Overall responder rate, adequate relief of IBS symptoms [3]: 206 (55) n (%)
Overall responder rate, adequate relief of abdominal pain/discomfort [3]: 221 (59) n (%)
Overall responder rate, adequate relief of abnormal bowel habits [3]: 203 (54) n (%)
Median adequate relief rate, IBS symptoms (3 months): 0.58
Median adequate relief rate, abdominal pain/discomfort (3 months): 0.58
Median adequate relief rate, abnormal bowel habits (3 months): 0.58
Overall responder rate, IBS symptoms (3 months, observed case, ITT): 55%
Overall responder rate, abdominal pain/discomfort (3 months, observed case, ITT): 59%
Overall responder rate, abnormal bowel habits (3 months, observed case, ITT): 54%
Responder rate, abdominal pain/discomfort (Argentina and Chile): 65%
Number of months a subject was a responder: One month (Abdominal pain/discomfort) [4]: 30 (11) n (%)
Number of months a subject was a responder: One month (Abnormal bowel habits) [4]: 33 (12) n (%)
Number of months a subject was a responder: One month (IBS symptoms) [4]: 38 (14) n (%)
Number of months a subject was a responder: Three months (Abdominal pain/discomfort) [4]: 113 (42) n (%)
Number of months a subject was a responder: Three months (Abnormal bowel habits) [4]: 104 (39) n (%)
Number of months a subject was a responder: Three months (IBS symptoms) [4]: 107 (40) n (%)
Number of months a subject was a responder: Two months (Abdominal pain/discomfort) [4]: 50 (19) n (%)
Number of months a subject was a responder: Two months (Abnormal bowel habits) [4]: 51 (19) n (%)
Number of months a subject was a responder: Two months (IBS symptoms) [4]: 48 (18) n (%)
Number of months a subject was a responder: Zero months (Abdominal pain/discomfort) [4]: 73 (27) n (%)
Number of months a subject was a responder: Zero months (Abnormal bowel habits) [4]: 78 (29) n (%)
